Experiments:
[1] = target: T1, human RORγt (Ligand Binding Domain) (Homo sapiens, UniProt P51449); assay: Fluorescence Polarization (FP) Assay; details: Fluorescence Polarization (FP) Assay; values given as upper bounds of activity ranges; read-out: FP activity range
T1 construct: purchased Crelux (Planegg, Germany) batch no PC5032-1
T1 sequence (P51449 269-508 limits assumed): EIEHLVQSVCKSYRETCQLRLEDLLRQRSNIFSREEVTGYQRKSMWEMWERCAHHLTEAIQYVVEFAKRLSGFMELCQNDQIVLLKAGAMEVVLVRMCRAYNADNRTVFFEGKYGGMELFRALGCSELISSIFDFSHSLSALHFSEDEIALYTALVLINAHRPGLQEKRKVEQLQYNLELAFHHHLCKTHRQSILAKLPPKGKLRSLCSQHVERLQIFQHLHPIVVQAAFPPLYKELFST
Procedure, shortened: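 In vitro FP binding assay monitoring ligand binding within the ligand binding pocket. Probe is a TAMRA-labelled RORγt ligand (MW 910 g/mole); DMSO served as negative control.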

[2] = target: T2, yeast Gal4-DNA binding domain fused to the ligand binding domain of human RORγ (Homo sapiens, UniProt P51449); assay: RORγ Reporter Assay (Gal4); format: cell-based; details: values given as lower bounds of ranges; for Gal4 activity range @ 0.1 μM (% inhibition): RORγ Reporter Assay (Gal4) at 0.1 μM; for Gal4 activity range @ 1 μM (% inhibition): RORγ Reporter Assay (Gal4) at 1 μM
T2 construct: host or cells: HEK293t
T2 sequence (P51449 269-508 limits assumed): T1 sequence (P51449 269-508 limits assumed)
Procedure, shortened: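 HEK293t reporter cells expressing the hybrid, with Gal4-UAS-driven firefly luciferase, treated in triplicate with compound at 1,000 nM and 100 nM (0.1% DMSO) in medium with 10% charcoal-stripped FBS for 24 h at 37 °C. Luminescence read; percent reduction of RLU calculated relative to vehicle.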

| IC50 [1] | Gal4 activity range @ 0.1 μM (% inhibition) [2] | Gal4 activity range @ 1 μM (% inhibition) [2] | SMILES |
| --- | --- | --- | --- |
| < 0.5 µM | >20 % inhibition | >80 % inhibition | CC1(CNc2ncnc(N3CCOC[C@@H]3c3ccc(C(F)(F)F)cc3)c2F)CCCCC1O (stereo partly drawn) [Example 295, 2-[[[5-fluoro-6-[(3S)-3-[4-(trifluoromethyl)phenyl]morpholin-4-yl]pyrimidin-4-yl]amino]methyl]-2-methyl-cyclohexanol] |
| < 1 µM | >0 % inhibition | >80 % inhibition | NC(=O)Cc1ccc(CNc2ncnc(N3CCCC3c3ccc4c(c3)OCO4)c2F)cc1 (centres unmarked) [Example 299, 2-[4-[[[6-[2-(1,3-benzodioxol-5-yl)pyrrolidin-1-yl]-5-fluoro-pyrimidin-4-yl]amino]methyl]phenyl]acetamide] |
| < 10 µM | >20 % inhibition | >20 % inhibition | NC(=O)Cc1ccc(CNc2ncnc(N3CCCC3c3ccc(O)cc3)c2F)cc1 (centres unmarked) [Example 300, 2-[4-[[[5-fluoro-6-[2-(4-hydroxyphenyl)pyrrolidin-1-yl]pyrimidin-4-yl]amino]methyl]phenyl]acetamide] |
| < 0.5 µM | >50 % inhibition | >80 % inhibition | CCOc1ccc(C2CCCN2c2ncnc(NCc3ccc(CC(N)=O)cc3)c2F)cc1 (centres unmarked) [Example 301, 2-[4-[[[6-[2-(4-ethoxyphenyl)pyrrolidin-1-yl]-5-fluoro-pyrimidin-4-yl]amino]methyl]phenyl]acetamide] |
| < 0.5 µM | >20 % inhibition | >50 % inhibition | Cc1ccc(C2CCCN2c2ncnc(NCc3ccc(CC(N)=O)cc3)c2F)cc1 (centres unmarked) [Example 302, 2-[4-[[[5-fluoro-6-[2-(p-tolyl)pyrrolidin-1-yl]pyrimidin-4-yl]amino]methyl]phenyl]acetamide] |
| < 0.5 µM | >80 % inhibition | >80 % inhibition | CC(C)c1ccc(C2CCCN2c2ncnc(NCc3ccc(CC(N)=O)cc3)c2F)cc1 (centres unmarked) [Example 303, 2-[4-[[[5-fluoro-6-[2-(4-isopropylphenyl)pyrrolidin-1-yl]pyrimidin-4-yl]amino]methyl]phenyl]acetamide] |
| < 0.5 µM | >20 % inhibition | >80 % inhibition | COc1cccc(C2CCCN2c2ncnc(NCc3ccc(CC(N)=O)cc3)c2F)c1 (centres unmarked) [Example 304, 2-[4-[[[5-fluoro-6-[2-(3-methoxyphenyl)pyrrolidin-1-yl]pyrimidin-4-yl]amino]methyl]phenyl]acetamide] |
| < 0.5 µM | >50 % inhibition | >80 % inhibition | NC(=O)Cc1ccc(CNc2ncnc(N3CCCC3c3cccc(Br)c3)c2F)cc1 (centres unmarked) [Example 305, 2-[4-[[[6-[2-(3-bromophenyl)pyrrolidin-1-yl]-5-fluoro-pyrimidin-4-yl]amino]methyl]phenyl]acetamide] |
| < 0.5 µM | >50 % inhibition | >80 % inhibition | NC(=O)Cc1ccc(CNc2ncnc(N3CCCC3c3cccc(Cl)c3)c2F)cc1 (centres unmarked) [Example 306, 2-[4-[[[6-[2-(3-chlorophenyl)pyrrolidin-1-yl]-5-fluoro-pyrimidin-4-yl]amino]methyl]phenyl]acetamide] |
| < 2 µM | >20 % inhibition | >50 % inhibition | NC(=O)Cc1ccc(CNc2ncnc(N3CCC3c3ccc(C(F)(F)F)cc3)c2F)cc1 (centres unmarked) [Example 307, 2-[4-[[[5-fluoro-6-[2-[4-(trifluoromethyl)phenyl]azetidin-1-yl]pyrimidin-4-yl]amino]methyl]phenyl]acetamide] |
| < 10 µM | >20 % inhibition | >50 % inhibition | NC(=O)Cc1ccc(CNc2ncnc(N3CCCCC3c3ccc(C(F)(F)F)cc3)c2F)cc1 (centres unmarked) [Example 308, 2-[4-[[[5-fluoro-6-[2-[4-(trifluoromethyl)phenyl]-1-piperidyl]pyrimidin-4-yl]amino]methyl]phenyl]acetamide] |
| < 0.5 µM | >20 % inhibition | >80 % inhibition | Cc1ccc(C2CCCN2c2ncnc(NCc3ccc(CC(N)=O)cc3)c2F)o1 (centres unmarked) [Example 313, 2-[4-[[[5-fluoro-6-[2-(5-methyl-2-furyl)pyrrolidin-1-yl]pyrimidin-4-yl]amino]methyl]phenyl]acetamide] |
| < 0.5 µM | >20 % inhibition | >80 % inhibition | CCc1ccc(C2CCCN2c2ncnc(NCc3ccc(CC(N)=O)cc3)c2F)o1 (centres unmarked) [Example 316, 2-[4-[[[6-[2-(5-ethyl-2-furyl)pyrrolidin-1-yl]-5-fluoro-pyrimidin-4-yl]amino]methyl]phenyl]acetamide] |
| < 0.5 µM | >20 % inhibition | >20 % inhibition | COc1ccc(C2CCCN2c2ncnc(NCc3ccc(CC(N)=O)cc3)c2F)c(OC)c1 (centres unmarked) [Example 318, 2-[4-[[[6-[2-(2,4-dimethoxyphenyl)pyrrolidin-1-yl]-5-fluoro-pyrimidin-4-yl]amino]methyl]phenyl]acetamide] |
| < 0.5 µM | – | >0 % inhibition | O=S(=O)(O)c1ccc(CNc2ncnc(N3CCC[C@@H]3c3ccc(C(F)(F)F)cc3)c2F)cc1 [Example 319, 4-[[[5-fluoro-6-[(2R)-2-[4-(trifluoromethyl)phenyl]pyrrolidin-1-yl]pyrimidin-4-yl]amino]methyl]benzenesulfonic acid] |
| < 0.5 µM | >80 % inhibition | >80 % inhibition | COCCNS(=O)(=O)c1ccc(CNc2ncnc(N3CCC[C@@H]3c3ccc(C(F)(F)F)cc3)c2F)cc1 [Example 320, 4-[[[5-fluoro-6-[(2R)-2-[4-(trifluoromethyl)phenyl]pyrrolidin-1-yl]pyrimidin-4-yl]amino]methyl]-N-(2-methoxyethyl)benzenesulfonamide] |
| < 0.5 µM | >80 % inhibition | >80 % inhibition | NC(=O)Cc1ccc(CNc2ncnc(N3CCCC3c3ccc(C(F)(F)F)cc3O)c2F)cc1 (centres unmarked) [Example 323, 2-[4-[[[5-fluoro-6-[2-[2-hydroxy-4-(trifluoromethyl)phenyl]pyrrolidin-1-yl]pyrimidin-4-yl]amino]methyl]phenyl]acetamide] |
| < 0.5 µM | >50 % inhibition | >80 % inhibition | CS(=O)(=O)N1CCC(CNc2ncnc(N3CCCC3c3ccc(C(F)(F)F)cc3O)c2F)CC1 (centres unmarked) [Example 324, 2-[1-[5-fluoro-6-[(1-methylsulfonyl-4-piperidyl)methylamino]pyrimidin-4-yl]pyrrolidin-2-yl]-5-(trifluoromethyl)phenol] |
| < 0.5 µM | >50 % inhibition | >80 % inhibition | NC(=O)Cc1ccc(Cn2ccc3c(N4CCOC[C@@H]4c4ccc(C(F)(F)F)nc4)ncnc32)cc1 [Example 326, 2-[4-[[4-[(3S)-3-[6-(trifluoromethyl)-3-pyridyl]morpholin-4-yl]pyrrolo[2,3-d]pyrimidin-7-yl]methyl]phenyl]acetamide] |
| < 1 µM | >20 % inhibition | >80 % inhibition | CS(=O)(=O)N1CCC(CNc2ncnc(N3CCOC[C@@H]3c3ccc(C(F)(F)F)cc3)c2F)C1 (stereo partly drawn) [Example 327, 5-fluoro-N-[(1-methylsulfonylpyrrolidin-3-yl)methyl]-6-[(3S)-3-[4-(trifluoromethyl)phenyl]morpholin-4-yl]pyrimidin-4-amine] |
| < 0.5 µM | >80 % inhibition | >80 % inhibition | NC(=O)Cc1ccc(Cn2ccc3c(N4CCOC[C@@H]4c4ccc(C(F)(F)F)cn4)ncnc32)cc1 [Example 328, 2-[4-[[4-[(3S)-3-[5-(trifluoromethyl)-2-pyridyl]morpholin-4-yl]pyrrolo[2,3-d]pyrimidin-7-yl]methyl]phenyl]acetamide] |
